What was measured:
Assay type in all cases: biochemical
HDAC3 = molecular target: T1, HDAC3 (Homo sapiens, UniProt O15379); experiment: HDAC Inhibition Screening Assay (FLUOR DE LYS Fluorimetric Drug Discovery Kit), HDAC3; details: for inhibition at 2 µM: 2 μM compound; for inhibition at 10 µM: 10 μM compound; for inhibition at 50 µM: 50 μM compound
T1 construct: purchased Enzo Life Sciences
Summary of the method: (§1)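 Two-step fluorimetric kit: enzyme deacetylates acetylated-lysine substrate; developer then releases fluorophore. Test cpds 2, 10, 50 μM. Ex 360/485 nm, Em 460/530 nm. Activity = % of basal control minus baseline control.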

HDAC2 = molecular target: T2, HDAC2 (Homo sapiens, UniProt Q92769); experiment: HDAC Inhibition Screening Assay (FLUOR DE LYS Fluorimetric Drug Discovery Kit), HDAC2; details: for inhibition at 2 µM: 2 μM compound; for inhibition at 10 µM: 10 μM compound; for inhibition at 50 µM: 50 μM compound
T2 construct: purchased Enzo Life Sciences
Summary of the method: as §1

HDAC1 = molecular target: T3, HDAC1 (Homo sapiens, UniProt Q13547); experiment: HDAC Inhibition Screening Assay (FLUOR DE LYS Fluorimetric Drug Discovery Kit), HDAC1; details: for inhibition at 2 µM: 2 μM compound; for inhibition at 10 µM: 10 μM compound; for inhibition at 50 µM: 50 μM compound
T3 construct: purchased Enzo Life Sciences
Summary of the method: as §1

ATX (autotaxin) = molecular target: T4, ATX (autotaxin) (Homo sapiens, UniProt Q13822); experiment: Autotaxin Inhibition Screening Assay (choline release from LPC, LPC-CR); details: for inhibition at 4 µM: 4 μM compound; for inhibition at 20 µM: 20 μM compound; for inhibition at 50 µM: 50 μM compound
T4 construct: purchased Cayman 10803
Summary of the method: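 20 ng ATX incubated with 100 μM 14:0 LPC in 50 mM Tris pH 8.0, 0.01% Triton X-100, 50 mM CaCl2, with choline oxidase/HRP/2 mM HVA coupling; compounds at 4, 20 and 50 μM. HVA fluorescence (ex/em 320/450 nm) read every 60 s for 90 min; inhibition % from slopes corrected for blank versus vehicle.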

T2 sequence (Q92769 whole entry): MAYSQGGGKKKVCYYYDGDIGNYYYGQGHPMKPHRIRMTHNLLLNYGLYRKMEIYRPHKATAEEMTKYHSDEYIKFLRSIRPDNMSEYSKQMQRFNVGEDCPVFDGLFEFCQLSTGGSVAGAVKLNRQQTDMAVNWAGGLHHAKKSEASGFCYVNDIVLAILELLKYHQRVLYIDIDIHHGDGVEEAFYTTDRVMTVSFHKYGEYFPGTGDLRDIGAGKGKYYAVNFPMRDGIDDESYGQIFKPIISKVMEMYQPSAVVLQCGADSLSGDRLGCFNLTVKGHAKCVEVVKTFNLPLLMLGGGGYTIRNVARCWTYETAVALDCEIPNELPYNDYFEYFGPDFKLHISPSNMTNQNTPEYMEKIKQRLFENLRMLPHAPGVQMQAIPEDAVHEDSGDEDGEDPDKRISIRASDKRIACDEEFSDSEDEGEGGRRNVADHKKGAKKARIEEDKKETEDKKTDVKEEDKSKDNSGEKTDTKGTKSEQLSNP
T1 sequence (O15379 whole entry): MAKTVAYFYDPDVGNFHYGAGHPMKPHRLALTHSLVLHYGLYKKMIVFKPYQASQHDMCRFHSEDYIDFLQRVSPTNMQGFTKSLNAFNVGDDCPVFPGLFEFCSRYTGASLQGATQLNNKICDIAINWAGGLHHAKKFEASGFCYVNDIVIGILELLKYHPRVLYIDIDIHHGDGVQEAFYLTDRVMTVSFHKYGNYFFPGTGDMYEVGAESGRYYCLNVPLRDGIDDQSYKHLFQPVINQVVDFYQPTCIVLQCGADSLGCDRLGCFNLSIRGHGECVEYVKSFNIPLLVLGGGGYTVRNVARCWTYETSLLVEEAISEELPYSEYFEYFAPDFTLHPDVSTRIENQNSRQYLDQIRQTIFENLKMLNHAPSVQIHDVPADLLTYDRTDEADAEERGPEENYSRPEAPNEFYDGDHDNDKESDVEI
T1 sequence (O75376 395-489 partner limits assumed): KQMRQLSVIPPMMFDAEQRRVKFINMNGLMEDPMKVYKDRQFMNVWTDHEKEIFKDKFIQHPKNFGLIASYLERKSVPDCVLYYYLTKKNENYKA
T3 sequence (Q13547 whole entry): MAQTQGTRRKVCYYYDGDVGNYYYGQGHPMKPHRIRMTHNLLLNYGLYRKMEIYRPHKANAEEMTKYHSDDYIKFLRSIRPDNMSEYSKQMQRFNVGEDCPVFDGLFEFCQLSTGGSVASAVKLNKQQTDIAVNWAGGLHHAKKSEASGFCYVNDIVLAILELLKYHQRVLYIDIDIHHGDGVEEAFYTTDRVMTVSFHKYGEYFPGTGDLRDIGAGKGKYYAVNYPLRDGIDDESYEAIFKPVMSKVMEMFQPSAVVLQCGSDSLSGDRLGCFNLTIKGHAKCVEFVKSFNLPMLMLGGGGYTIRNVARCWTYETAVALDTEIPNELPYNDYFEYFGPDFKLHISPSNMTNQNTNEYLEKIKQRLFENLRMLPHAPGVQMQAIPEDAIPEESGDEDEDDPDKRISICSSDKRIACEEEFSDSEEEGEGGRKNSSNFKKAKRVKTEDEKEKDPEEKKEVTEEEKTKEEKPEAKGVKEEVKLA

Row | inhibition at 2 µM (HDAC3) | inhibition at 10 µM (HDAC3) | inhibition at 50 µM (HDAC3) | inhibition at 2 µM (HDAC2) | inhibition at 10 µM (HDAC2) | inhibition at 50 µM (HDAC2) | inhibition at 2 µM (HDAC1) | inhibition at 10 µM (HDAC1) | inhibition at 50 µM (HDAC1) | inhibition at 4 µM (ATX (autotaxin)) | inhibition at 20 µM (ATX (autotaxin)) | inhibition at 50 µM (ATX (autotaxin)) | Compound
1 | < 50% | < 50% | 50 to 80% | < 50% | 50 to 80% | 50 to 80% | < 50% | < 50% | 50 to 80% | > 80% | > 80% | > 80% | O=C(NO)c1ccc(COc2ccc3c(c2)CC(Cc2cc(C(F)(F)F)cc(C(F)(F)F)c2)C3=O)cc1 (stereo not drawn) [Compound 77, 4-(((2-(3,5-bis(trifluoromethyl)benzyl)-1-oxo-2,3-dihydro-1H-inden-5-yl)oxy)methyl)-N-hydroxybenzamide]
2 | < 50% | < 50% | < 50% | < 50% | < 50% | < 50% | < 50% | < 50% | < 50% | > 80% | > 80% | > 80% | Nc1cc(F)ccc1NC(=O)CCCCCNC(=O)c1ccc2c(c1)CC/C(=C\c1cc(C(F)(F)F)cc(C(F)(F)F)c1)C2=O [Compound 78]
3 | 50 to 80% | > 80% | > 80% | 50 to 80% | > 80% | > 80% | 50 to 80% | > 80% | > 80% | > 80% | > 80% | > 80% | O=C(CCCCCNC(=O)c1ccc2c(c1)CC/C(=C\c1cc(C(F)(F)F)cc(C(F)(F)F)c1)C2=O)NO [Compound 79, (E)-6-(3,5-bis(trifluoromethyl)benzylidene)-N-(6-(hydroxyamino)-6-oxohexyl)-5-oxo-5,6,7,8-tetrahydronaphthalene-2-carboxamide]
4 | < 50% | < 50% | < 50% | < 50% | < 50% | < 50% | < 50% | < 50% | < 50% | < 50% | < 50% | 50 to 80% | Nc1cc(F)ccc1NC(=O)CCCCNC(=O)c1ccc2c(c1)CC/C(=C\c1cc(C(F)(F)F)cc(C(F)(F)F)c1)C2=O [Compound 80]
5 | < 50% | 50 to 80% | 50 to 80% | < 50% | < 50% | 50 to 80% | < 50% | < 50% | 50 to 80% | > 80% | > 80% | > 80% | O=C(CCCCNC(=O)c1ccc2c(c1)CC/C(=C\c1cc(C(F)(F)F)cc(C(F)(F)F)c1)C2=O)NO [Compound 81, (E)-6-(3,5-bis(trifluoromethyl)benzylidene)-N-(5-(hydroxyamino)-5-oxopentyl)-5-oxo-5,6,7,8-tetrahydronaphthalene-2-carboxamide]
6 | < 50% | < 50% | 50 to 80% | < 50% | < 50% | < 50% | < 50% | < 50% | < 50% | > 80% | > 80% | > 80% | Nc1cc(F)ccc1NC(=O)CCCCC(=O)N1CCN(C(=O)c2ccc3c(c2)CC/C(=C\c2cc(C(F)(F)F)cc(C(F)(F)F)c2)C3=O)CC1 [Compound 82, (E)-N-(2-amino-4-fluorophenyl)-6-(4-(6-(3,5-bis(trifluoromethyl)benzylidene)-5-oxo-5,6,7,8-tetrahydronaphthalene-2-carbonyl)piperazin-1-yl)-6-oxohexanamide]
7 | < 50% | < 50% | 50 to 80% | < 50% | < 50% | 50 to 80% | < 50% | < 50% | 50 to 80% | > 80% | > 80% | > 80% | O=C(CCCCC(=O)N1CCN(C(=O)c2ccc3c(c2)CC/C(=C\c2cc(C(F)(F)F)cc(C(F)(F)F)c2)C3=O)CC1)NO [Compound 83, (E)-6-(4-(6-(3,5-bis(trifluoromethyl)benzylidene)-5-oxo-5,6,7,8-tetrahydro-naphthalene-2-carbonyl)piperazin-1-yl)-N-hydroxy-6-oxohexanamide]

— patent US12162820B2 (TAIWANJ PHARMACEUTICALS CO., LTD., priority 2019, dated 2024)
